Assay results reported in paper PMC6504997 (ACS chemical biology, 2018).

Biological target: EXOSC3 (GST-EXOSC3, EXOSC3-WT) (Homo sapiens, UniProt Q9NQT5)
Test: MST, inhibition of RNA binding
Settings: 3.12 μM long G-rich RNA (GGGAGGGAGGGAGAGGGA)

Sequence of EXOSC3 (GST-EXOSC3, EXOSC3-WT) (Q9NQT5 whole entry): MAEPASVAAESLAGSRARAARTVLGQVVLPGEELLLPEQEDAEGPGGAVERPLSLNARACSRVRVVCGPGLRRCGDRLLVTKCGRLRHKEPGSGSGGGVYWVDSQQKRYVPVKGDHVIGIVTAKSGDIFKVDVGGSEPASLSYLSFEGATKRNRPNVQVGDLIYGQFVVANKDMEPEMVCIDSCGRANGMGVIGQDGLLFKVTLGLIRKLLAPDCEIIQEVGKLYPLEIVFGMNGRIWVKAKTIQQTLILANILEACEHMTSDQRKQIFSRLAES

CC(C)(O)CCc1cccc(C(=O)N2Cc3ccccc3C(O)C2)c1 (stereo not shown) [ERD03, EXOSC3-RNA disrupting (ERD) compound 3]
% inhibition at 50 μM: 54 ± 10%
